Values after ≈ are worked out from the molar mass of the structure shown.
Columns and labels:
[1] = tested on: S. salivarius (ATCC 13419); experiment: MIC against S. salivarius; assay type: cell-based; conditions: Streptococcus salivarius, ATCC13419; 48 hours, 37° C., turbidity <0.05 absorbance at 660 nm
Text: (§1) One method of evaluating the efficacy of LAE and MBE against salivary bacteria is by determining the minimum inhibitory concentration (MIC). One suitable method for determining MIC is described in U.S. Pat. No. 7,470,442, which is herein incorporated by reference. Briefly, chlorhexidine is used as a positive control and sterile water is used as a negative control. Methanol and Tween 80 are used as a solvent for MBE. Tween 80 is the common name for Polysorbate 80. Ninety-six-well microtiter plates are used for this study. Each well contained 5×10^5 CFU/ml of bacteria, serially diluted agents and bacterial growth medium. All bacterial cultures are incubated at 37° C. and stationary. Bacterial growth is estimated spectrophotometrically at 660 nm, after 48 hours.
(§2) S. mutans (ATCC No. 25715), S. sobrinus (ATCC 33478), S. salivarius (ATCC 13419) and F. nucleatum (ATCC No. 10953) were purchased from American Type Culture Center (ATCC, MD). S. mutans, S. sobrinus, and S. salivarius were incubated for 24 hours in Schaedler broth containing 1 ppm vitamin K and 10 ppm hemin. F. nucleatum was incubated anaerobically for 48 hrs. […]
(§3) The MIC of LAE and MBE against the four oral bacteria described supra was determined. The effectiveness of MBE and LAE on total salivary bacteria was evaluated using whole saliva. […]

[2] = tested on: F. nucleatum (ATCC No. 10953); experiment: MIC against F. nucleatum; assay type: cell-based; conditions: Fusobacterium nucleatum, ATCC10953; 48 hours, 37° C., turbidity <0.05 absorbance at 660 nm
Text: as §1, §2, §3

[3] = tested on: S. mutans (ATCC No. 25715); experiment: MIC against S. mutans; assay type: cell-based; conditions: Streptococcus mutans, ATCC25715; 48 hours, 37° C., turbidity <0.05 absorbance at 660 nm
Text: as §1, §2, §3

[4] = tested on: S. mutans (ATCC No. 25715); experiment: MBC against S. mutans; assay type: cell-based; conditions: Streptococcus mutans, ATCC25715; kills at least 99.9% of initial inoculum
Experimental: (§4) Another method for evaluating the efficacy of LAE and MBE against salivary bacteria is by determining the minimum bactericidal concentration (MBC). One suitable method for determining MBC is described in U.S. Pat. No. 7,470,442. Briefly, the MBC is determined using the 96-well microtiter plate serial dilutions as described above for the MIC test. Serial dilutions of cultures in wells showing no visible growth are performed and 10 microliters of culture are plated in triplicate on blood agar plates. Viable colonies are scored after incubation of the plates for 48 hours at 37° C. For each test bacterium, the number of CFU/ml is determined in the initial inoculum. The MBC is defined as the lowest concentration of a test compound that killed at least 99.9% of the cells present in the initial inoculum. […] The MBC of MBE and LAE against the four oral bacteria described supra was determined using the MBC protocol set forth below. The effectiveness of MBE on total salivary bacteria was evaluated using whole saliva. The MBC was determined by serial dilutions as described above for the MIC test. […] Viable colonies were scored after incubation of the plates for 48 hours at 37° C. For each test bacterium, the number of CFU/ml was determined in the initial inoculum. […]

[5] = tested on: total salivary bacteria (whole saliva); experiment: MIC and FIC Index against total salivary bacteria (whole saliva); assay type: cell-based, human
Text: as §1
For testing total salivary bacteria (whole saliva), 30 ml of saliva was collected from a minimum of 3 healthy human volunteers by chewing a standard gum base. The freshly collected saliva was vortexed briefly and directly added to nutrient broth.
A 1% (w/v) solution of MBE powder (95% magnolol, 5% honokiol, Honsea Sunshine Biotech Co., Ltd., Guangzhou, China) in 100% ethanol was prepared, and used in the current example.
LAE-CF (containing 99% pure LAE) was obtained from Vedeqsa of Barcelona, Spain, and used in the current example.
The MIC of LAE and MBE against the four oral bacteria described supra was determined. The effectiveness of MBE and LAE on total salivary bacteria was evaluated using whole saliva.
Chlorhexidine was used as a positive control and sterile water was used as a negative control. MBE was dissolved in ethanol to produce a working solution containing 1% of MBE. It was added to Shaedler broth that contained 10 ppm of Hemin, 1 ppm of Vitamin K and a minimum of 1×10^6 CFU/ml of bacterial strains. […]
Calculation of the FIC is disclosed in U.S. Pat. No. 7,074,447, which is herein incorporated by reference. Briefly, the FIC Index is calculated according to the following formula: FIC=[QA/Qa+QB/Qb] where […]

[6] = tested on: F. nucleatum (ATCC No. 10953); experiment: MBC against F. nucleatum; assay type: cell-based; conditions: Fusobacterium nucleatum, ATCC10953; kills at least 99.9% of initial inoculum
Experimental: as §4

S. sobrinus (ATCC 33478) [7] = experiment: MIC against S. sobrinus; assay type: cell-based; conditions: Streptococcus sobrinus, ATCC33478; 48 hours, 37° C., turbidity <0.05 absorbance at 660 nm
Text: as §1, §2, §3

[8] = tested on: S. salivarius (ATCC 13419); experiment: MBC against S. salivarius; assay type: cell-based; conditions: Streptococcus salivarius, ATCC13419; kills at least 99.9% of initial inoculum
Experimental: as §4

S. sobrinus (ATCC 33478) [9] = experiment: MBC against S. sobrinus; assay type: cell-based; conditions: Streptococcus sobrinus, ATCC33478; kills at least 99.9% of initial inoculum
Experimental: as §4

MIC [1]: 6.3 µg/mL (≈ 16.4 µM) | MIC [2]: 12.5 µg/mL (≈ 32.5 µM) | MIC [3]: 6.3 µg/mL (≈ 16.4 µM) | MIC Whole Saliva ([5]; 48 hours, 37° C., turbidity <0.05 absorbance at 660 nm): 50 ppm | MIC (ppm) on total salivary bacteria, component alone ([5]; Table 3, single agent): 50 ppm | MIC (S. sobrinus (ATCC 33478) [7]): 6.3 µg/mL (≈ 16.4 µM)
Structure (SMILES): CCCCCCCCCCCC(=O)N[C@@H](CCCNC(=N)N)C(=O)OCC [LAE-CF, L-arginine, N^α-lauroyl ethyl ester]
MBC [4]: 12.5 µg/mL (≈ 32.5 µM) | FIC ([5]; total salivary bacteria, FIC<1 synergistic, 1≤FIC≤2 additive, 2<FIC antagonistic): 1 | MBC [6]: 12.5 µg/mL (≈ 32.5 µM) | MBC [8]: 12.5 µg/mL (≈ 32.5 µM) | MBC (S. sobrinus (ATCC 33478) [9]): 12.5 µg/mL (≈ 32.5 µM)

From patent US10485746B2, “Synergistic antibacterial effects of magnolia bark extract and L-arginine, Nα-lauroyl ethyl ester on salivary bacteria” (WM. WRIGLEY JR. COMPANY, priority 2015, dated 2019)
